Experimental findings from US20230190707A1, “COMPOSITIONS AND METHODS FOR ENHANCING CANCER IMMUNOTHERAPY” (FRED HUTCHINSON CANCER CENTER, priority 2020, published 2023) are described below.

The subject of one assay is MC38 cells. Description: In vivo tumor challenge with ex vivo MS-023-treated MC38 cells. Set-up: species or system mouse. The settings on record: MC38 cells treated 5 μM for 96 hours. The method, then:
(§1) Unless otherwise specified, cell lines were treated with splicing inhibitors at the indicated concentrations for 96 hours in vitro, harvested and washed three times with PBS in excess to remove all drug, and then used for downstream analyses and/or subsequent studies, including phenotyping, RNA-seq analyses, continued growth in vitro, or tumor challenge in vivo into syngeneic animals.
Unless otherwise specified, syngeneic B6 or Balb/c mice were engrafted subcutaneously on bilateral flanks with MC38, B16-F10, CT26 or LLC tumor cells at the following doses: MC38 10^6 cells, B16-F10 0.5×10^6 cells, CT26 0.25×10^6 cells, LLC 0.25×10^6 cells. Tumors were measured serially twice or three times weekly and tumor volumes were estimated by length×width×height. Animals were monitored daily for survival and weighed twice weekly. Experimental endpoints mandating euthanasia were approved by the IACUC and included: animal lethargy, severe kyphosis or evidence of pain, difficulty with ambulation or feeding, tumor ulceration>1 cm or bleeding tumor, evidence of infected tumor, tumor volumes exceeding 2.5 cm^3, or animal total body weight loss>10% from baseline.

For assay [1], the system named is asymmetric dimethyl arginines (ADMA). Description: ADMA levels by western blot after MS-023. Format: cell-based, mouse. The settings on record: MC38 cells, 5 μM for 96 hours. On the procedure: as §1
(§2) Western blotting was performed as per standard techniques. Anti-RBM39 (Atlas Antibodies, Cat. HPA001591 or Bethyl laboratories, Cat. A300-291A) were used to detect RBM39 degradation. ADMA and SDMA levels were determined using antibodies from Cell Signaling Technologies (Cat. 13222S and Cat. 135225). Actin antibody (clone AC-15) was obtained from MilliporeSigma (Cat. A5441-.2ML). Densitometry of RBM39 and actin loading control was performed using ImageJ software in order to calculate RBM39 degradation IC50 values.

The next assay relates to CD8^+ T cells. The experiment in a line: IFNγ ELISpot with indisulam-treated B16-F10 cells as antigen-presenting cells. Format: cell-based, mouse. The settings on record: B16-F10 treated with indisulam 1 μM for 96 hours. On the procedure: Such cells were then non-enzymatically harvested, washed repeatedly to remove IFNγ, and irradiated to 60 Gy from a ^60Co source to inhibit growth and further upregulate MHC I. […] IFNγ ELISpot was performed as per manufacturer's instructions (BD Biosciences, Cat. 551083). Spots were imaged and quantified on an Immunospot® analyzer (Cellular Technology Limited, Cleveland, Ohio).

A further assay concerns LLC tumors. The experiment in a line: Therapeutic treatment with indisulam and anti-PD1, LLC tumors. Format: in vivo, mouse. The settings on record: syngeneic C57BL/6; indisulam 25 mg/kg i.v.; anti-PD1 250 μg. The text has this: Mice were weighed weekly for weight-based drug dosing.
For the next assay, the target named is H-2K^b (Mus musculus, UniProt P01901). The experiment in a line: MHC I immunoprecipitation and LC-MS/MS, H-2K^b. It is filed as cell-based. From the text:
Peptide-MHC complexes were isolated as previously described (Abelin, J. G., et al. (2017). Mass Spectrometry Profiling of HLA-Associated Peptidomes in Mono-allelic Cells Enables More Accurate Epitope Prediction. Immunity 46, 315-326, incorporated herein by reference in its entirety), with the following modifications: anti-mouse H-2D^b (clone B22-249.R1, CedarLane laboratories, Cat. CL9001AP) or H-2K^b (clone Y-3, BioXCell Cat. BE0172) non-covalently linked to GammaBind Plus Sepharose beads were co-incubated with soluble lysates overnight. […]
Desalted, dried samples enriched for MHC peptides were resolubilized in 8 uL 0.10% TFA and 3 uL were loaded onto a packed-in-emitter 12 cm/75 um ID/3 um C18 particles column (Nikkyo Technos Co., Ltd. Japan). […] Precursor mass spectra were recorded from m/z 300-1500 m/z range at 60,000 resolution. […] MS/MS spectra were recorded at 30,000 resolution and lowest mass set at m/z 110. […] All experiments were recorded in FT-mode.
Mass spectra from all MHC immunoprecipitations were analyzed using Proteome Discoverer v2.4.1.15, with the following workflow. […]

In another assay the target is T1, RBM39 (Mus musculus, UniProt Q6PFH3+Q8VH51).
T1 construct: endogenous in cells; host or cells: B16-F10 (also MC38, CT26, LLC)
The experiment in a line: RBM39 degradation, western blot densitometry. It is filed as cell-based. The method, then:
as §2

H-2K^b, sequence (P01901 22-369 limits assumed): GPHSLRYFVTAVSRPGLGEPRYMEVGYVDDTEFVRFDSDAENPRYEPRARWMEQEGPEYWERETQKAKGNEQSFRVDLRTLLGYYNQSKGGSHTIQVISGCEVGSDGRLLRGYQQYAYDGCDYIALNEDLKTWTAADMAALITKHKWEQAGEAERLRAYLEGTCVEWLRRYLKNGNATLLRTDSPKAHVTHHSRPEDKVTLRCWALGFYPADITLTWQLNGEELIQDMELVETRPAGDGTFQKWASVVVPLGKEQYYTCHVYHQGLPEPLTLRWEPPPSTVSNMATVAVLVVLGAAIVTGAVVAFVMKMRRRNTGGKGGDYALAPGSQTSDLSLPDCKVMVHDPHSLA

`CC(C)Oc1ccc(-c2c[nH]cc2CN(C)CCN)cc1` [MS-023]: the “tumor growth following engraftment into syngeneic, immune-competent mice” value in the assay with MC38 cells is listed as “durable suppression of tumor growth”. Besides, the “asymmetric dimethyl arginines (ADMA)” value in assay [1] was “globally reduced”.
Take `NS(=O)(=O)c1ccc(S(=O)(=O)Nc2cccc3c(Cl)c[nH]c23)cc1` [indisulam]: the “antigen-specific T cell activation by indisulam-treated B16-F10 cells” value in the assay with CD8^+ T cells was “triggers antigen-specific T cell activation”. Further, in the assay on LLC tumors, the “growth of LLC tumors in vivo” value is listed as “inhibited tumor growth”. Also, the “peptides only recovered from indisulam-treated samples” value at H-2K^b (B16-F10 cells) is given as 366. The “bound peptides arising from mRNA isoforms specifically promoted by indisulam treatment” value at H-2K^b (intersection with RNA-seq) is on record as 28. In addition, the “RBM39 protein following drug removal” value at RBM39 (ex vivo 1 μM for four days followed by drug washout) was “sustained suppression of RBM39 protein”. Besides, at RBM39 (range across B16-F10, MC38, CT26, LLC cells, 24 hours, read-out: IC50 values for RBM39 degradation), the DC50 fell in the range of 60 to 1000 nM.
